Measurements taken from PubChem BioAssay (NCI).
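Dose response: 5 concentrations. Exposure: 48 h. Format: 96-well plates. Endpoint: linear interpolation; highest concentration if not reached. TGI: concentration producing complete growth inhibition.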

Tests used:
Assay in all cases: NCI-60 cell line screen, 48 h
PC-3 prostate = tested on: PC-3 prostate
A498 renal = tested on: A498 renal
UACC-257 melanoma = tested on: UACC-257 melanoma
RXF 393 renal = tested on: RXF 393 renal
UO-31 renal = tested on: UO-31 renal
HCC-2998 colon = tested on: HCC-2998 colon
HOP-92 NSCLC = tested on: HOP-92 NSCLC
TK-10 renal = tested on: TK-10 renal
NCI/ADR-RES ovarian = tested on: NCI/ADR-RES ovarian
T-47D breast = tested on: T-47D breast
MALME-3M melanoma = tested on: MALME-3M melanoma
HT29 colon = tested on: HT29 colon
DU-145 prostate = tested on: DU-145 prostate
NCI-H23 lung = tested on: NCI-H23 lung
NCI-H522 lung = tested on: NCI-H522 lung
OVCAR-4 ovarian = tested on: OVCAR-4 ovarian
HS 578T breast = tested on: HS 578T breast
786-0 renal = tested on: 786-0 renal
SF-539 CNS = tested on: SF-539 CNS

Row | Compound | TGI (PC-3 prostate) | TGI (A498 renal) | TGI (UACC-257 melanoma) | TGI (RXF 393 renal) | TGI (UO-31 renal) | TGI (HCC-2998 colon) | TGI (HOP-92 NSCLC) | TGI (TK-10 renal) | TGI (NCI/ADR-RES ovarian) | TGI (T-47D breast) | TGI (MALME-3M melanoma) | TGI (HT29 colon) | TGI (DU-145 prostate) | TGI (NCI-H23 lung) | TGI (NCI-H522 lung) | TGI (OVCAR-4 ovarian) | TGI (HS 578T breast) | TGI (786-0 renal) | TGI (SF-539 CNS)
1 | CNC(=O)C(NC(=O)[C@H](CC(C)C)NC(=O)[C@@H](S)CCN1C(=O)N(C)C(C)(C)C1=O)C(C)(C)C (some centres not stated) | > 100 µM | > 100 µM | > 100 µM | > 100 µM | > 100 µM | > 100 µM | > 100 µM | > 100 µM | > 100 µM | > 100 µM | > 100 µM | > 100 µM | > 100 µM | > 100 µM | > 100 µM | > 100 µM | > 100 µM | > 100 µM | –
2 | O=C(O)[C@H]1NC[C@@H]2ON=C(Br)[C@@H]21 | > 100 µM | > 100 µM | > 100 µM | > 100 µM | > 100 µM | > 100 µM | > 100 µM | > 100 µM | > 100 µM | > 100 µM | > 100 µM | > 100 µM | > 100 µM | > 100 µM | > 100 µM | > 100 µM | > 100 µM | > 100 µM | > 100 µM
3 | CS(=O)(=O)OC1CCN(C2(c3cccc(O)c3)CCCCC2)CC1 | > 100 µM | > 100 µM | > 100 µM | > 100 µM | > 100 µM | 39.7 µM | > 100 µM | > 100 µM | > 100 µM | > 100 µM | > 100 µM | > 100 µM | > 100 µM | > 100 µM | > 100 µM | > 100 µM | > 100 µM | 92.4 µM | 89.9 µM
4 | Nc1ccc(S(=O)(=O)c2ccc(N=[N+]([O-])c3ccc(S(=O)(=O)c4ccc(N)cc4)cc3)cc2)cc1 | > 100 µM | > 85.1 µM | > 100 µM | 57.8 µM | > 100 µM | > 100 µM | 38.4 µM | > 88 µM | > 100 µM | > 100 µM | > 100 µM | > 100 µM | > 100 µM | > 82.8 µM | > 74 µM | > 62.6 µM | > 74.7 µM | 60.3 µM | 58.1 µM
5 | O=S(=O)(Nc1nc(-c2cc(O)c(O)c(O)c2)cs1)c1ccc(Cl)cc1Cl | > 100 µM | > 100 µM | 67.7 µM | 71.4 µM | 46.5 µM | – | > 100 µM | 36.2 µM | 69 µM | 41.1 µM | > 100 µM | 51.2 µM | 53.8 µM | 74.1 µM | 34.5 µM | 47.9 µM | 53.6 µM | 46.2 µM | 71.5 µM
6 | Nc1nc(SCc2ccccc2[N+](=O)[O-])c2[nH]cnc2n1 | > 100 µM | 48.3 µM | > 75.9 µM | > 94 µM | > 100 µM | 97.4 µM | 9.06 µM | > 62.7 µM | > 100 µM | 74.1 µM | > 67.4 µM | > 100 µM | > 100 µM | > 100 µM | > 67.5 µM | > 100 µM | 24.7 µM | > 100 µM | > 100 µM
7 | Cc1ccc(C(=O)/C=C/N2CCN(c3cccc(C(F)(F)F)c3)CC2)cc1 | > 100 µM | 33.3 µM | 32.5 µM | 33.1 µM | 36.7 µM | 25.5 µM | > 100 µM | 56.8 µM | 33 µM | 76.5 µM | 38.1 µM | 35.8 µM | 38 µM | 31 µM | 35.4 µM | > 100 µM | 51.4 µM | 34 µM | 31.5 µM
8 | OC(C1CCCC1=N/N=C1/CCCC1C(O)(C(F)(F)Cl)C(F)(F)Cl)(C(F)(F)Cl)C(F)(F)Cl (configuration not stated) | > 10 µM | > 10 µM | > 10 µM | > 10 µM | – | > 10 µM | > 10 µM | > 10 µM | > 10 µM | > 10 µM | > 10 µM | > 10 µM | > 10 µM | > 10 µM | > 10 µM | > 10 µM | > 10 µM | > 10 µM | > 10 µM
9 | Cn1c2cc(Cl)ccc2c2ccc3c(c21)C(=O)C=CC3=O | > 82 µM | > 100 µM | > 77.3 µM | 40 µM | > 100 µM | > 100 µM | 35.8 µM | 56.6 µM | > 89.7 µM | 55.6 µM | 33.4 µM | > 64.6 µM | > 100 µM | 54.4 µM | 22.9 µM | 52.3 µM | > 100 µM | > 55.9 µM | > 78.8 µM
10 | C[N+](C)(N)Cc1csc(-c2ccc(Cl)cc2)n1 | > 100 µM | > 100 µM | > 100 µM | > 100 µM | > 100 µM | > 100 µM | > 100 µM | > 100 µM | > 100 µM | > 100 µM | > 100 µM | > 100 µM | > 100 µM | > 100 µM | > 100 µM | > 100 µM | > 100 µM | > 100 µM | > 100 µM
